Reference: the NIST ThermoML archive (doi:10.1016/j.tca.2016.03.026)
± gives the expanded uncertainty stated by the source.

Experiments:
[1] = xn = mol fraction of the nth substance listed; conditions: 100 kPa, Liquid; for speed of sound: Frequency=3 MHz, Sing-around technique in a fixed-path interferometer; for mass density: Vibrating tube method
[2] = refractive index (Na D-line) (dimensionless); xn = mol fraction of the nth substance listed; conditions: 100 kPa, Liquid, Standard Abbe refractometry

CCCCCCCC[n+]1ccn(C)c1.F[B-](F)(F)F [1-methyl-3-octylimidazolium tetrafluoroborate] + CC(C)CO
Conditions | mass density, 298.15 K [kg/m3] | mass density, 308.15 K [kg/m3] | mass density, 318.15 K [kg/m3] | refractive index, 298.15 K | refractive index, 308.15 K | refractive index, 318.15 K | speed of sound, 298.15 K [m/s] | speed of sound, 308.15 K [m/s] | speed of sound, 318.15 K [m/s]
[1], x1 = 0.1084 | 876.21 ± 1.8 | 869.11 ± 1.8 | 860.8 ± 1.7 | – | – | – | 1230.3 ± 1.4 | 1198.3 ± 1.4 | 1162.2 ± 1.4
[1], x1 = 0.2056 | 927.81 ± 1.9 | 920.72 ± 1.9 | 912.57 ± 1.8 | – | – | – | 1274.1 ± 1.5 | 1242.4 ± 1.5 | 1206.4 ± 1.5
[1], x1 = 0.3002 | 966.65 ± 1.9 | 959.59 ± 1.9 | 951.64 ± 1.9 | – | – | – | 1314.4 ± 1.6 | 1282.1 ± 1.6 | 1246.2 ± 1.6
[1], x1 = 0.4082 | 1001.41 ± 2 | 994.4 ± 2 | 986.65 ± 2 | – | – | – | 1354.1 ± 1.7 | 1322.4 ± 1.7 | 1287.5 ± 1.7
[1], x1 = 0.4989 | 1024.88 ± 2.1 | 1017.95 ± 2.1 | 1010.44 ± 2.1 | – | – | – | 1381.1 ± 1.8 | 1351.3 ± 1.8 | 1317.8 ± 1.8
[1], x1 = 0.6024 | 1047.08 ± 2.2 | 1040.26 ± 2.1 | 1032.97 ± 2.1 | – | – | – | 1407.2 ± 1.9 | 1378.2 ± 1.9 | 1347.4 ± 1.9
[1], x1 = 0.7044 | 1065.38 ± 2.2 | 1058.63 ± 2.2 | 1051.52 ± 2.2 | – | – | – | 1429.1 ± 2 | 1402.1 ± 2 | 1373.3 ± 2
[1], x1 = 0.8062 | 1080.91 ± 2.3 | 1074.22 ± 2.3 | 1067.26 ± 2.3 | – | – | – | 1447.2 ± 2.1 | 1421.1 ± 2.1 | 1394.3 ± 2.1
[1], x1 = 0.8998 | 1093.3 ± 2.4 | 1086.63 ± 2.4 | 1079.78 ± 2.3 | – | – | – | 1463.8 ± 2.2 | 1437.1 ± 2.2 | 1411.3 ± 2.2
[1], x1 = 1 | 1105.02 ± 1.1 | 1098.32 ± 1 | 1091.54 ± 1 | – | – | – | 1485.1 ± 2.3 | 1458.5 ± 2.3 | 1433.2 ± 2.3
[2], x1 = 0.1084 | – | – | – | 1.40643 ± 0.0016 | 1.40292 ± 0.0016 | 1.40008 ± 0.0016 | – | – | –
[2], x1 = 0.2056 | – | – | – | 1.41442 ± 0.0016 | 1.41142 ± 0.0016 | 1.40854 ± 0.0016 | – | – | –
[2], x1 = 0.3002 | – | – | – | 1.41922 ± 0.0016 | 1.41636 ± 0.0016 | 1.41407 ± 0.0016 | – | – | –
[2], x1 = 0.4082 | – | – | – | 1.42292 ± 0.0016 | 1.41998 ± 0.0016 | 1.41801 ± 0.0016 | – | – | –
[2], x1 = 0.4989 | – | – | – | 1.42482 ± 0.0016 | 1.42182 ± 0.0016 | 1.41925 ± 0.0016 | – | – | –
[2], x1 = 0.6024 | – | – | – | 1.42664 ± 0.0016 | 1.42372 ± 0.0016 | 1.42108 ± 0.0016 | – | – | –
[2], x1 = 0.7044 | – | – | – | 1.42845 ± 0.0017 | 1.42562 ± 0.0017 | 1.42306 ± 0.0017 | – | – | –
[2], x1 = 0.8062 | – | – | – | 1.43004 ± 0.0017 | 1.42748 ± 0.0017 | 1.42474 ± 0.0017 | – | – | –
[2], x1 = 0.8998 | – | – | – | 1.43121 ± 0.0017 | 1.42866 ± 0.0017 | 1.42604 ± 0.0017 | – | – | –
[2], x1 = 1 | – | – | – | 1.43253 ± 0.0017 | 1.42984 ± 0.0017 | 1.42715 ± 0.0017 | – | – | –

CCCCCCCC[n+]1ccn(C)c1.F[B-](F)(F)F [1-methyl-3-octylimidazolium tetrafluoroborate] + CCCCO
Conditions | mass density, 298.15 K [kg/m3] | mass density, 308.15 K [kg/m3] | mass density, 318.15 K [kg/m3] | refractive index, 298.15 K | refractive index, 308.15 K | refractive index, 318.15 K | speed of sound, 298.15 K [m/s] | speed of sound, 308.15 K [m/s] | speed of sound, 318.15 K [m/s]
[1], x1 = 0.1027 | 878.23 ± 1.8 | 870.62 ± 1.8 | 862.9 ± 1.7 | – | – | – | 1273.2 ± 1.3 | 1240.8 ± 1.3 | 1206.7 ± 1.3
[1], x1 = 0.2022 | 929.75 ± 1.9 | 922.28 ± 1.9 | 914.69 ± 1.8 | – | – | – | 1306.5 ± 1.4 | 1274.7 ± 1.4 | 1241.8 ± 1.4
[1], x1 = 0.3056 | 970.63 ± 2 | 963.3 ± 1.9 | 955.89 ± 1.9 | – | – | – | 1339.7 ± 1.5 | 1308.7 ± 1.5 | 1276.3 ± 1.5
[1], x1 = 0.3989 | 999.88 ± 2 | 992.71 ± 2 | 985.42 ± 2 | – | – | – | 1366.1 ± 1.6 | 1336 ± 1.6 | 1304.2 ± 1.6
[1], x1 = 0.5062 | 1027.17 ± 2.1 | 1020.16 ± 2.1 | 1013 ± 2.1 | – | – | – | 1392.8 ± 1.7 | 1363.2 ± 1.7 | 1333.3 ± 1.7
[1], x1 = 0.6018 | 1047.22 ± 2.1 | 1040.32 ± 2.1 | 1033.31 ± 2.1 | – | – | – | 1413.7 ± 1.8 | 1384.8 ± 1.8 | 1356 ± 1.8
[1], x1 = 0.6978 | 1064.35 ± 2.2 | 1057.54 ± 2.2 | 1050.61 ± 2.2 | – | – | – | 1431.9 ± 1.9 | 1403.8 ± 1.9 | 1377 ± 1.9
[1], x1 = 0.8014 | 1080.2 ± 2.3 | 1073.47 ± 2.3 | 1066.62 ± 2.2 | – | – | – | 1450.2 ± 2.1 | 1423 ± 2.1 | 1397.2 ± 2.1
[1], x1 = 0.9062 | 1094.06 ± 2.4 | 1087.36 ± 2.4 | 1080.57 ± 2.3 | – | – | – | 1468.3 ± 2.2 | 1441.6 ± 2.2 | 1416.3 ± 2.2
[1], x1 = 1 | 1105.02 ± 1.1 | 1098.32 ± 1 | 1091.54 ± 1 | – | – | – | 1485.1 ± 2.3 | 1458.5 ± 2.3 | 1433.2 ± 2.3
[2], x1 = 0.1027 | – | – | – | 1.40763 ± 0.0016 | 1.40492 ± 0.0016 | 1.40232 ± 0.0016 | – | – | –
[2], x1 = 0.2022 | – | – | – | 1.41502 ± 0.0016 | 1.41254 ± 0.0016 | 1.40964 ± 0.0016 | – | – | –
[2], x1 = 0.3056 | – | – | – | 1.41903 ± 0.0016 | 1.41692 ± 0.0016 | 1.41438 ± 0.0016 | – | – | –
[2], x1 = 0.3989 | – | – | – | 1.42183 ± 0.0016 | 1.41956 ± 0.0016 | 1.41736 ± 0.0016 | – | – | –
[2], x1 = 0.5062 | – | – | – | 1.42405 ± 0.0016 | 1.42175 ± 0.0016 | 1.41965 ± 0.0016 | – | – | –
[2], x1 = 0.6018 | – | – | – | 1.42594 ± 0.0016 | 1.42362 ± 0.0016 | 1.42126 ± 0.0016 | – | – | –
[2], x1 = 0.6978 | – | – | – | 1.42791 ± 0.0016 | 1.42542 ± 0.0016 | 1.42301 ± 0.0016 | – | – | –
[2], x1 = 0.8014 | – | – | – | 1.42974 ± 0.0017 | 1.42732 ± 0.0017 | 1.42444 ± 0.0017 | – | – | –
[2], x1 = 0.9062 | – | – | – | 1.43151 ± 0.0017 | 1.42861 ± 0.0017 | 1.42615 ± 0.0017 | – | – | –
[2], x1 = 1 | – | – | – | 1.43253 ± 0.0017 | 1.42984 ± 0.0017 | 1.42715 ± 0.0017 | – | – | –
